Source: patent EP0008556A1, “Bis 7H pyridocarbazole derivatives and pharmaceutical compositions containing them” (ANVAR Agence Nationale de Valorisation de la Recherche, priority 1978, dated 1980)

Assays:
Type in all cases: in vivo, souris
[1] = test system: leucémie L1210; test: Therapeutic effect on L1210 leukemia in mice, single intraperitoneal injection 24 h after intraperitoneal tumour inoculation; conditions: for Augmentation survie traitées/contrôle x 100 / Survie moyenne en jours des souris traitées ± erreur standard. / % de cellules tumorales tuées par le traitement: single i.p. injection, inoculum 10^5 L1210 cells; for % de cellules tumorales tuées par le traitement: calculated by Skipper method; for Nombre d'animaux guéris: cured = survival more than 45 days after inoculation; for index chimiothérapeutique: leucémie L1210, read from Table VI; for fraction des cellules survivantes N/No après traitement en fonction de la dose (fraction de la dose infra-létale DLo): figure 2, comparison with dérivé 34 (DIE)
Description: Afin de tester l'activité antitumorale des composés décrits plus haut, on a utilisé en premier lieu des leucémies murines P388 et L1210. La leucémie P388 est considérée comme très sensible et permet une première sélection. La leucémie L1210 est plus résistante et plus sélective. Une substance ayant une grande activité sur la leucémie L1210 a une grande chance d'être active en clinique humaine (J.M. VENDITTI, Relevance of transplantable animal tumor systems to the Selection of new agents for clinical trial in pharmacologi- cal basis of cancer chemotherapy. The University of Texas ed. Williams and Wilkins, publ. 1975, Baltimore USA) .
D'autre part, la tumeur expérimentale qu'est la leucémie L1210 de la souris est en effet couramment utilisée pour l'évaluation de tous les composés antitumoraux actuellement mis en oeuvre en thérapeutique humaine, ainsi qu'il est décrit, par exemple par C.C. ZUBROD dans Proc. Nat. Acad. Sci. USA 69, 1972, p 1042-1047. Le système tumoral ainsi constitué expérimentalement permet une évaluation quantitative très précise de l'activité du composé testé, et, par conséquent aussi, une comparaison objective entre les activités respectives de différents composés, par exemple selon les méthodes décrites par R.E. SKIPPER, F.M. SCHABEL Jr. et W.S. WILCOX dans Cancer Chemother. Rep., 35, 1964, p 1-111 et 45, 1965, p 5-28.
(§1) En pratique, on a utilisé des souris ayant reçu par voie intrapéritonéale un inoculum de cellules de leucémie L1210 et ayant été, pour la moitié d'entre elles, soumises 24 heures après ladite inoculation tumorale à une injection intrapéritonéale d'une dose unique de l'un des composés à tester : l'autre moitié des souris a reçu une injection d'un volume identique d'un solvant inactif et servait de série témoin. On a réparti les souris au hasard dans chaque série expérimentale. Une première expérimentation de routine a permis de déterminer la mortalité par toxicité et de fixer ainsi les doses infra-létales.
Conformément à la convention en usage dans ce domaine, on considérait comme guéris les animaux qui survivaient plus de 45 jours après l'inoculation de cellules tumorales.
On a ainsi pu déterminer la mortalité par toxicité sous l'effet d'une injection unique de l'un des composés à différentes doses (doses infra-létales, DL 50 et DL 100) et évaluer le taux de survie du groupe d'animaux auxquels on n'avait injecté qu'une dose infra-létale d'un composé selon l'invention.
On a calculé le taux de survie à partir d'une analyse statistique des résultats expérimentaux, par comparaison avec les résultats obtenus avec la série témoin, selon les méthodes bien connues de Mann-Whitey et de Wilcoxon; le pourcentage de cellules leucémiques tuées par le traitement réalisé était calculé par la méthode décrite par H.E. SKIPPER et coll. dans les articles cités plus haut, en prenant pour base, suivant le cas, soit l'augmentation de la survie moyenne en l'absence de survivants, soit le pourcentage de survivants.
Pour l'évaluation de l'activité thérapeutique des composés selon l'invention, on a exprimé les doses dudit composé en les rapportant à la dose infra-létale […], que l'on a posée égale à 1. Cette dose infra-létale s'est en effet avérée plus facile à déterminer pour les composés de l'invention que la DL 10, dont elle est d'ailleurs très voisine et qui est habituellement prise comme référence pour l'évaluation de l'activité thérapeutique de composés à effet antitumoral (voir H.E. SKIPPER et coll., ouvrages cités).

[2] = test system: tumeur de Lewis; test: Survival of mice bearing Lewis tumour, identical protocol; conditions: same doses
Description: as §1
(§2) En outre, ces composés présentent une forte activité sur le mélanome B 16 et la tumeur de Lewis, pour les mêmes doses, le protocole étant identique. A titre d'exemple, sur le mélanome B 16, le dérivé 41 augmente de 15 jours la survie des souris traitées; sur la tumeur de Lewis, l'augmentation de survie induite pour ce même dérivé est de 8 jours avec un survivant.

[3] = test system: mélanome B 16; test: Survival of mice bearing B 16 melanoma, identical protocol; conditions: same doses
Description: as §1, §2

[4] = dose 0.02 of the infra-lethal dose
[5] = dose 0.1 of the infra-lethal dose
[6] = dose 0.2 of the infra-lethal dose
[7] = dose 0.25 of the infra-lethal dose
[8] = dose 0.3 of the infra-lethal dose
[9] = dose 0.4 of the infra-lethal dose
[10] = dose 1/5 of the infra-lethal dose
[11] = dose 0.04 of the infra-lethal dose
[12] = dose 0.8 of the infra-lethal dose

SMILES | Augmentation survie traitées/contrôle x 100 [1, 4] | Survie moyenne en jours des souris traitées ± erreur standard. [1, 4] | % de cellules tumorales tuées par le traitement [1, 4] | Augmentation survie traitées/contrôle x 100 [1, 6] | Survie moyenne en jours des souris traitées ± erreur standard. [1, 6] | % de cellules tumorales tuées par le traitement [1, 6] | Augmentation survie traitées/contrôle x 100 [1, 9] | Survie moyenne en jours des souris traitées ± erreur standard. [1, 9] | % de cellules tumorales tuées par le traitement [1, 9] | % des cellules leucémiques tuées [1, 10] | index chimiothérapeutique [1] | fraction des cellules survivantes N/No après traitement en fonction de la dose (fraction de la dose infra-létale DLo) [1] | further results
COc1ccc2[nH]c3ccc4cc[n+](CCN5CCC(C6CCN(CC[n+]7ccc8ccc9[nH]c%10ccc(OC)cc%10c9c8c7)CC6)CC5)cc4c3c2c1 [Dérivé 34, Dichlorurede 1'1'-bis 2-(2-méthoxy-10,7-H-pyrido[4,3-c]carbazolium)éthy14,4' bispipéridine] | 128 | 12.2 ± 0.9 jours | 98% | 144 | 14.3 ± 2.6 jours | 99.97% | 182 | 18.1 ± 4.5 jours | 99.999% | 99,97% | extrêmement élevé |  | Nombre d'animaux guéris [1, 5]: 1/15; Augmentation survie traitées/contrôle x 100 [1, 5]: 137; Survie moyenne en jours des souris traitées ± erreur standard. [1, 5]: 13.6 ± 2.9 jours; % de cellules tumorales tuées par le traitement [1, 5]: 94.8%; Augmentation survie traitées/contrôle x 100 [1, 7]: 216; Survie moyenne en jours des souris traitées ± erreur standard. [1, 7]: 18.6 ± 4.5 jours; % de cellules tumorales tuées par le traitement [1, 7]: 99.999%; Augmentation survie traitées/contrôle x 100 [1, 8]: 191; Survie moyenne en jours des souris traitées ± erreur standard. [1, 8]: 17.6 ± 4.5 jours; % de cellules tumorales tuées par le traitement [1, 8]: 99.999%
O=P1(N(CCCl)CCCl)NCCCO1 (stereo not shown) [cyclophosphamide, reference compound] |  |  |  |  |  |  |  |  |  |  |  | ne sont actives qu'à des doses bien supérieures à celles du dérivé 34 | 
O=NN(CCCl)C(=O)NCCCl [bischloréthylnitrosourée (BCNU), bischloréthylnitrosourée, reference compound] |  |  |  |  |  |  |  |  |  |  |  | ne sont actives qu'à des doses bien supérieures à celles du dérivé 34 | 
Oc1ccc2[nH]c3ccc4cc[n+](CCN5CCC(C6CCN(CC[n+]7ccc8ccc9[nH]c%10ccc(O)cc%10c9c8c7)CC6)CC5)cc4c3c2c1 [Dérivé 40] | 111 | 9.4 ± 1.2 jours | 94% | 153 | 12.9 ± 1.5 jours | 99.47% | 167 | 13.2 ± 1.9 jours | 99.994% | 99,97% | extrêmement élevé |  | 
COc1ccc2c(c1)c1c3c[n+](CCN4CCC(C5CCN(CC[n+]6ccc7ccc8c(c7c6)c6cc(OC)ccc6n8C)CC5)CC4)ccc3ccc1n2C [Dérivé 41, Dichlorurede 1,1' bis 2-(2-méthyl-7-méthoxy-10,7-H-pyrido [4,3-c]carbazolium) éthyl 4,4' bispipéridine] |  |  |  |  |  |  | 140 | 11.8 ± 0.9 jours | 99.8% |  | extrêmement élevé |  | augmentation de survie [2]: 8 jours; survivant [2]: un survivant; Augmentation survie traitées/contrôle x 100 [1, 11]: 143; Survie moyenne en jours des souris traitées ± erreur standard. [1, 11]: 11.9 ± 1.2 jours; % de cellules tumorales tuées par le traitement [1, 11]: 99.8%; Nombre d'animaux guéris [1, 9]: 1/15; Augmentation survie traitées/contrôle x 100 [1, 12]: 155; Survie moyenne en jours des souris traitées ± erreur standard. [1, 12]: 12.9 ± 1.9 jours; % de cellules tumorales tuées par le traitement [1, 12]: 99.97%; % des cellules leucémiques tuées ([1]; dose 1/15 of the infra-lethal dose): 91,8%; augmentation de la survie des souris traitées [3]: 15 jours
